One may read the IC50 as the concentration that inhibits the measured activity by half. Read a high IC50 as weaker potency.

Three compounds from BindingDB's records for doi:10.1021/jm020050+ (Glaxosmithkline, 2002) can be followed below.

In assay [1] the target is T1, Enoyl-[acyl-carrier-protein] reductase [NADPH] FabI (Staphylococcus aureus (strain MRSA252), UniProt Q6GI75).
T1 sequence (Q6GI75 whole entry): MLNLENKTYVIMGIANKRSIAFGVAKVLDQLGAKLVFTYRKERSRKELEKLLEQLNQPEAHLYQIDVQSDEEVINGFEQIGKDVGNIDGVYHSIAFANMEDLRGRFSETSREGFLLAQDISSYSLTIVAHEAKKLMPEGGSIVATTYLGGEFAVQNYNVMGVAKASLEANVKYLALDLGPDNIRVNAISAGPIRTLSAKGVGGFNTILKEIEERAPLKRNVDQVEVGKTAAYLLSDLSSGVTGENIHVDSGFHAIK
The assay is described as follows: Enzyme Inhibition Assay. The note with it: pH 6.5; 30 °C. How it is done: (§1) Assays were carried out in half-area, 96-well microtiter plates. Compounds were evaluated in assay mixtures containing components specific for each enzyme. […] The consumption of NAD(P)H was monitored for 20 min at 30 °C by following the change in absorbance at 340 nm. IC50 values were estimated from a fit of the initial velocities to a standard equation.

Assay [2] has as its target T2, Enoyl-[acyl-carrier-protein] reductase [NADH] FabI (Haemophilus influenzae (strain ATCC 51907 / DSM 11121 / KW20 / Rd), UniProt P44432).
T2 sequence (P44432 whole entry): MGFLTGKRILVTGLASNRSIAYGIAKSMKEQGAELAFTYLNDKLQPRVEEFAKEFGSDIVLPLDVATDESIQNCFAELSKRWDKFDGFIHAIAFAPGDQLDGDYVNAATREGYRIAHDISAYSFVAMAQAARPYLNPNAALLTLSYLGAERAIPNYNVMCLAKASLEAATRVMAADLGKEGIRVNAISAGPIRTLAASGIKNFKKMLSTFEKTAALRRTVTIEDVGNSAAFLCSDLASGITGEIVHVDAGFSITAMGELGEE
The assay is described as follows: Enzyme Inhibition Assay. The note with it: 30 °C. How it is done:
as §1

Turning to `COC(=O)C[C@@H]1Nc2ccc(C(=O)N(C)Cc3cc4ccccc4n3C)cc2CN(C)C1=O` [(2S)-2-[(Carbomethoxy)methyl]-N,4-dimethyl-N-(1-methyl-1H-indol-2-ylmethyl)-3-oxo-2,3,4,5-tetrahydro-1H-1,4-benzodiazepine-7-carboxamide], the IC50 in assay [1] was 676 µM; in assay [2], over 100 µM. The compound `CN(Cc1cc2ccccc2n1C)C(=O)/C=C/c1ccc(N)cc1` [(E)-3-(4-Aminophenyl)-N-methyl-N-(1-methyl-1H-indol-2-ylmethyl)acrylamide] returned an IC50 in assay [1] of 11.2 µM. Turning to `CN(Cc1cc2ccccc2n1C)C(=O)c1ccccc1` [N-Methyl-N-(1-methyl-1H-indol-2-ylmethyl)benzamide], in assay [2], the IC50 was over 100 µM.
